Laboratory results reported in patent publication US9670519B2, “Methods for reducing accumulation of lactate during culturing and method for producing polypeptide” (Biocon Limited, priority 2011, dated 2017).
Like-named read-outs stand apart in the source and are kept apart here.

Assays:
[1] = tested on: Chinese Hamster Ovary (CHO) cells genetically engineered to produce the Anti Her-2 antibody; settings: for Residual Lactate: salt 0.4 mM in HyClone CDM4NS0 medium, fedbatch; for further reduction in the accumulation of lactate in presence of said salt (versus control) / reduction of the accumulation of lactate in the media with the added salt: salt 0.4 mM, over the run till 7th day
Experimental: (§1) In another embodiment of the present disclosure, the level of lactate in the medium is analyzed using the device YSI 7100 MBS Analyzer.
(§2) The level of lactate is analyzed for all the following experiments in the below examples by the use of the YSI 7100 MBS Analyzer. The pH for all the below experiments as recited in the following examples are maintained between pH 6.85-7.2. The level of Oxygen is also maintained by the oxygen levels are maintained by agitation in the shaker incubator. In all the below mentioned examples, the concentration of the added salt is the concentration of the salt as present in the medium. The temperature can be suitably varied, based on the nature of the cells used and other related parameters.
(§3) The cell culturing was performed in fedbatch mode. In the cell culture, the mammalian host cells used were Chinese Hamster Ovary (CHO) cells and HyClone CDM4NS0 culture medium was supplied initially. The CHO cells were genetically engineered to produce the Anti Her-2 antibody. The copper sulphate pentahydrate salt was added in the medium at a concentration of 0.4 mM. In contrast, there was no addition of any copper salt in the control medium. The production fermentation run started with an initial cell count of 0.3-0.45×10^6 cells/ml at 37±1° C., the first 3-4 days were dedicated to grow the cells in batch phase. In the next step, the temperature is lowered to 31+/−1° C. and the run is continued till 7th day. […] The produced Anti Her-2 antibody was then collected from the media using the technique of Affinity Chromatography.
as §3, with “zinc” for “copper”, “hepta hydrate” for “pentahydrate”

[2] = tested on: Chinese Hamster Ovary (CHO) cells genetically engineered to produce the Anti TNF antibody; settings: for Residual Lactate: salt 0.4 mM in HyClone CDM4NS0 medium, fedbatch; for further reduction in the accumulation of lactate in presence of said salt (versus control) / reduction of the accumulation of lactate in the media with the added salt: salt 0.4 mM, over the run till 7th day
Experimental: as §1, §2
as §3, with “Anti TNF” for “Anti Her-2”, “salt is also” for “salt was”, “to 31±1°” for “to 31+/−1°”
(§4) The cell culturing was performed in a fedbatch mode. In the cell culture, the mammalian host cells used were Chinese Hamster Ovary (CHO) cells and HyClone CDM4NS0 culture medium was supplied initially. The CHO cells were genetically engineered to produce the Anti TNF antibody. The zinc sulphate hepta hydrate salt is also added in the medium at a concentration of 0.4 mM. In contrast, there was no addition of any zinc salt in the control medium. The production fermentation run started with an initial cell count of 0.3-0.45×10^6 cells/ml at 37±1° C., the first 3-4 days were dedicated to grow the cells in batch phase. In the next step, the temperature is lowered to 31±1° C. and the run is continued till 7th day. […] The produced Anti TNF antibody was then collected from the media using the technique of Affinity Chromatography.

[3] = tested on: Chinese Hamster Ovary (CHO) cells genetically engineered to produce the Anti VEGF-A antibody; settings: for Residual Lactate: fedbatch; for further reduction in the accumulation of lactate in presence of said salt (versus control) / reduction of the accumulation of lactate in the media with the added salt: over the run till 7th day
Experimental: as §1, §2
as §3, with “VEGF-A” for “Her-2”
as §4, with “fedbatch.” for “a fedbatch mode.”, “VEGF-A” for “TNF”, “was” for “is also”, “31+/−1°” for “31±1°”
as §3, with “fedbatch mode is employed.” for “fedbatch mode.”, “Anti VEGF-A Antibody.” for “Anti Her-2 antibody.”, “salt is also” for “salt was”, “of 0.2” for “of 0.4”, “to 31±1°” for “to 31+/−1°”, “Anti VEGF-A Antibody” for “Anti Her-2 antibody”
The cell culturing was performed in fedbatch mode. In the cell culture, the mammalian host cell used were Chinese Hamster Ovary (CHO) cells and HyClone CDM4NS0 culture medium was supplied initially. The CHO cells were genetically engineered to produce the Anti VEGF-A Antibody. The zinc sulphate hepta hydrate salt is also added in the medium at a concentration of 0.2 mM. In contrast, there was no addition of any zinc salt in the control medium.

[4] = tested on: Chinese Hamster Ovary (CHO) cells genetically engineered to produce the Anti CD6 Antibody; settings: for Residual Lactate: salt 0.4 mM in HyClone CDM4NS0 medium, fedbatch
Experimental: as §1, §2
as §4, with “in” for “in a”, “cellculture,” for “cell culture,”, “CD6 Antibody.” for “TNF antibody.”, “is” for “is also”, “CD6 Antibody” for “TNF antibody”

[5] = salt 0.2 mM in HyClone CDM4NS0 medium, age 72 hours
[6] = salt 0.2 mM in HyClone CDM4NS0 medium, age 96 hours
[7] = salt 0.2 mM in HyClone CDM4NS0 medium, age 120 hours
[8] = salt 0.2 mM in HyClone CDM4NS0 medium, age 144 hours
[9] = salt 0.2 mM in HyClone CDM4NS0 medium, age 168 hours
[10] = salt 0.4 mM in HyClone CDM4NS0 medium, age 72 hours
[11] = salt 0.4 mM in HyClone CDM4NS0 medium, age 96 hours
[12] = salt 0.4 mM in HyClone CDM4NS0 medium, age 120 hours
[13] = salt 0.4 mM in HyClone CDM4NS0 medium, age 144 hours
[14] = salt 0.4 mM in HyClone CDM4NS0 medium, age 168 hours
[15] = salt 0.4 mM, over the run till 7th day

Row | Structure (SMILES) | Residual Lactate ([1]; age 72 hours) [mM] | Residual Lactate ([1]; age 96 hours) [mM] | Residual Lactate ([1]; age 120 hours) [mM] | Residual Lactate ([1]; age 144 hours) [mM] | Residual Lactate ([1]; age 168 hours) [mM] | further reduction in the accumulation of lactate in presence of said salt (versus control) [1] | reduction of the accumulation of lactate in the media with the added salt [1] | Residual Lactate ([2]; age 96 hours) [mM] | Residual Lactate ([2]; age 120 hours) [mM] | Residual Lactate ([2]; age 144 hours) [mM] | Residual Lactate ([2]; age 168 hours) [mM] | further reduction in the accumulation of lactate in presence of said salt (versus control) [2] | reduction of the accumulation of lactate in the media with the added salt [2] | Residual Lactate [3, 5] [mM] | Residual Lactate [3, 6] [mM] | Residual Lactate [3, 7] [mM] | Residual Lactate [3, 8] [mM] | Residual Lactate [3, 9] [mM] | further reduction in the accumulation of lactate in presence of said salt (versus control) ([3]; salt 0.2 mM) | reduction of the accumulation of lactate in the media with the added salt ([3]; salt 0.2 mM) | further results
1 | O.O.O.O.O.O=S(=O)([O-])[O-].[Cu+2] [Copper salt, copper sulphate pentahydrate] | 16 | 11.8 | 7.4 | 6.9 | 5.6 | about 14.5% | about 65% | 20.3 | 16.3 | 13.2 | 14.6 | about 13.05% | about 28.43% | 23.3 | 14.9 | 7.9 | 5.8 | 2.7 | about 6.17% | about 85.40% | Residual Lactate ([2]; age 72 hours): 20.4 mM; Residual Lactate [3, 10]: 16 mM; Residual Lactate [3, 11]: 14.8 mM; Residual Lactate [3, 12]: 5.9 mM; Residual Lactate [3, 13]: 3.4 mM; Residual Lactate [3, 14]: 2 mM; further reduction in the accumulation of lactate in presence of said salt (versus control) ([3]; salt 0.4 mM): about 26.5%; reduction of the accumulation of lactate in the media with the added salt ([3]; salt 0.4 mM): about 87.5%
2 | O.O.O.O.O.O.O.O=S(=O)([O-])[O-].[Zn+2] [Zinc salt, zinc sulphate hepta hydrate] | 16 | 11.8 | 7.4 | 6.9 | 5.6 | about 30.38% | about 64.88% | 19.6 | 16.4 | 13.8 | 15 | about 6.09% | about 23.46% | 23.3 | 16.3 | 10 | 5.9 | 3.4 | about 9.18% | about 88.41% | Residual Lactate ([4]; age 72 hours): 18 mM; Residual Lactate ([4]; age 96 hours): 11.2 mM; Residual Lactate ([4]; age 120 hours): 6.2 mM; Residual Lactate ([4]; age 144 hours): 3 mM; Residual Lactate ([4]; age 168 hours): 3.2 mM; further reduction in the accumulation of lactate in presence of said salt (versus control) [4, 15]: about 11.67%; reduction of the accumulation of lactate in the media with the added salt [4, 15]: about 82.22%; Residual Lactate [3, 10]: 16.6 mM; Residual Lactate [3, 11]: 14.7 mM; Residual Lactate [3, 12]: 7.6 mM; Residual Lactate [3, 13]: 6.2 mM; Residual Lactate [3, 14]: 4.5 mM; further reduction in the accumulation of lactate in presence of said salt (versus control) ([3]; salt 0.4 mM): about 11.57%; reduction of the accumulation of lactate in the media with the added salt ([3]; salt 0.4 mM): about 72.89%
